Reference: patent US12115182B2, “Adenosine A2A agonists for the treatment of cytokine storm syndrome” (priority 2021, dated 2024)

Legend:
[1] = Plasma levels of regadenoson in lung transplant recipients (LC-MS/MS); type: in vivo, human
Experimental: The peripheral blood samples for regadenoson measurement were collected at the following timepoints: 1) Prior to 1st lung reperfusion; 2) 1 hour post 1st lung perfusion; 3) 6 hours post infusion start; 4) 12 hours post infusion start; 5) 24 hours post infusion start. The blood samples were centrifuged, and the plasma samples were collected and stored at −80° C. The levels of regadenoson were determined via liquid chromatography-mass spectrometry with an improved d protocol based on our previous publication (LAU et al., J Heart Lung Transplant, (2020), 39:563-570) at The Mass Spectrometry Center at the School of Pharmacy, University of Maryland, Baltimore (detailed in supplemental methods).
Chemicals and Reagents. Regadenoson (purity 99.83%) was purchased from Selleckchem (Houston, TX, USA) and Regadenoson-d3 ((purity 99.68%) used as internal standard (IS) was obtained from Toronto Research Chemicals, (North York, ON, CT). Optima LC/MS grade water (H2O), methanol, and formic acid (FA) were purchased from Fisher Scientific (Pittsburgh, PA, USA).
Calibration Standards. 1 mg/ml stock solutions of Regadenoson and Regadenoson-d3 were prepared in Dimethyl sulfoxide (DMSO) and further working solutions to spike in plasma were prepared in methanol and water (70:30, v/v). Calibration standards (STD) in plasma ranged from 0.05 ng/ml to 50 ng/ml (8 points: 0.05, 0.1, 1, 5, 20, 30, 40, and 50 ng/ml). Quality control (QC) samples at 3 concentration levels (0.15 ng/ml, LQC; 25 ng/ml, MQC; and 45 ng/ml, HQC) were also prepared in plasma. Internal standard solution (Regadenoson-d3; 250 ng/ml) was prepared in methanol and water (70:30, v/v).
Sample Preparation. 50 μL of plasma sample (STD/QC/test sample) was added into a 2 ml centrifuge tube containing 20 μL of IS solution (250 ng/ml) and mixed well. Next, 500 μL of acetonitrile was added, shaken for 3 min at 2100 rpm, and centrifuged for 10 min at 15000 rpm. 400 μL of supernatant was transferred to glass tube and dried under a steady stream of nitrogen at 35° C. The sample was re-suspended in 100 μL of 0.1% formic acid in H2O: 0.1% formic acid in methanol (1:1 v/v) and injected (3 μl) into LC-MS/MS system.
Liquid Chromatography Tandem Mass Spectrometry (LC-MS/MS). LC-MS/MS analysis was performed on a TSO Altis Triple Stage Quadrupole Mass Spectrometer coupled to an Ultimate 3000 RS Liquid Chromatogram system (Thermo Scientific, San Jose, CA). The LC separation was performed on a BEH C18 column (2.1×50 mm, 1.7 μm) (Waters Corporations, Milford, MA) operated at 30° C. Mobile phase solvent A and B consisted of 0.1% FA in H2O and 0.1% FA in methanol, respectively. The gradient program started with 35% B; followed by a linear gradient to 50% Bin 0.7 min; maintained 50% B until 1.5 min; followed by a linear gradient back to 35% B in 2 min and maintained until 3 min. The flow rate was set at 0.22 ml/min. The retention time of Regadenoson and the IS was 1.09 min, and the total run time was 3 min.
Detection was performed in the positive-ion mode using electrospray ionization (ESI). Source parameters were as follows: spray voltage, 3500; Ion transfer tube temperature, 350; vaporizer temperature, 300; sheath gas pressure, 50; auxiliary gas pressure, 10; and sweet gas, 1. The compound parameters: collision energy (CE), and RF lens were 35 and 77 V, respectively for Regadenoson and the IS. Selected reaction monitoring (SRM) was used for mass detection with the following transitions: Regadenoson (m/z 391.1-259.2; quant) and (m/z 391.1-228.1; qual), Regadenoson-d3 (m/z 394.0-262.2; quant) and (m/z 394.0-228.2; qual). Data collection and analysis was performed by Xcalibur V 2.1 (Thermo Scientific, San Jose, CA).
Analytical parameters: The linear range is 0.05-50 ng/mL in human plasma. Samples that exceeded the upper limit of quantification were diluted 2 or 4 fold and reinjected.

[2] = test system: plasma cytokines/chemokines; assay: Plasma cytokines/chemokines in lung transplant recipients (11-plex); type: in vivo, human
Experimental: Blood was drawn for cytokine/chemokine, damage associated molecular patterns (DAMPs) at the following different timepoints: 1) before infusion (baseline), 2) 15 minutes before reperfusion of the 1st lung, 3) 30 minutes after reperfusion of 1st lung, 4) 30 minutes after reperfusion of 2nd lung, and 5) 6 hours after reperfusion of 1st lung.
The cytokines/chemokines, HMGB1 and sRAGE were determined at The University of Virginia Flow Cytometry Core (RRID: SCR 017829) as previously described (LAU et al., J Heart Lung Transplant, (2020), 39:563-570). The customized 11-plex cytokine panel detects IL-1, IL-2, IL-6, IL-7, IL-8, IL-10, IL-12P40, IL-12P70, IL-17, TNFa, and IFN-γ (Millipore Sigma, Burlington, MA).
Statistical differences of cytokine/chemokines, heart rates and blood pressures between groups were determined by two-way ANOVA followed by Tukey's multiple comparison test (GraphPad Prism 9.0). The PGD scores were analyzed by chi-squared test. The intubation times and hospital LOS, ICU LOS were analyzed by ANOVA of log and Kruskal-Wallis. Data was reported as means±SD. P value equal or less than 0.05 was considered significant.

SARS-CoV-2 = assay: Regadenoson in SARS-CoV-2-infected K18-ACE2 mice: survival; type: in vivo, mouse; conditions: for survival / mortality of infected K18-ACE2 mice: 1.44 μg/kg/hr, 7-day Alzet pump, vs saline
circulating iNKT cells = assay: Flow cytometry of CD69 on circulating iNKT cells of COVID-19 patients during regadenoson infusion; type: in vivo, human

In the case of `CNC(=O)c1cnn(-c2nc(N)c3ncn([C@@H]4O[C@H](CO)[C@@H](O)[C@H]4O)c3n2)c1` [Regadenoson], the “median peak plasma levels of regadenoson” value ([1]; 1.44 ug/kg/hour for 12 hours, preliminary result before dose alteration) is reported as 1.68 ng/mL, the “levels of regadenoson in blood” value ([1]; after 24 hours post regadenoson infusion) is reported as “minimal” and the “time of peak drug level post infusion start” value ([1]; high dose group, 2.88 ug/kg/hr for 12 hours) is reported as 12 h. For the same molecule, the “median peak plasma levels of regadenoson” value ([1]; high dose, 2.88 ug/kg/hr) was 14.34 ng/mL, the “time of peak drug level post infusion start” value ([1]; low dose group, 1.44 ug/kg/hr for 12 hours) was 6 h and the “median peak plasma levels of regadenoson” value ([1]; low dose, 1.44 ug/kg/hr) was 1.30 ng/mL. For the same molecule, the “transplant-induced elevation of TNF-α” value ([2]; 30 minutes after reperfusion of 1st lung, low dose p=0.071, high dose p=0.154) was “trended toward reducing”, the “transplantation-induced plasma levels of IL-6” value ([2]; 30 minutes after reperfusion of 2nd lung, low dose p=0.041, high dose p=0.007 vs control) was “significantly inhibited” and the “plasma IL-10” value ([2]; low dose infusion, p=0.078) was “trended toward increasing”. The “plasma levels of IL-8” value ([2]; low dose, 30 minutes after reperfusion of 2nd lung, p=0.032) was “significantly reduced”, the treated mice died (SARS-CoV-2; 1.44 μg/kg/hr subcutaneous infusion, 7-day pump, mostly on day 7) was 50% and the “survival / mortality of infected K18-ACE2 mice” value (SARS-CoV-2) was “increases survival”. The “survival / mortality of infected K18-ACE2 mice” value (SARS-CoV-2; listed as RA) was “decreases mortality”, the “expression of activation marker CD69 on circulating iNKT cells” value (circulating iNKT cells; 4 hours into the maintenance dose) was “significantly reduced” and the “expression of activation marker CD69 on circulating iNKT cells” value (circulating iNKT cells; after the 30 min loading dose) was “significantly reduced”. For the same molecule, the “reduction of the fraction of circulating iNKT cells that are CD69+” value (circulating iNKT cells; within 30 minutes) was 50%.
